In BigSolDB 2.1:

CCCc1ncc(C[n+]2ccccc2C)c(N)n1.Cl.[Cl-]
solubility (mole fraction)
Conditions	273.15 K	278.15 K	283.15 K	288.15 K	293.15 K	298.15 K	303.15 K	308.15 K	313.15 K
in 1,4-dioxane	–	–	–	5.76e-05	7.08e-05	8.42e-05	9.99e-05	0.000115	0.000132
in acetone	0.000227	0.000259	0.000291	0.000325	0.000359	0.000401	0.000444	0.000487	0.000533
in acetonitrile	7.2e-06	9.3e-06	1.15e-05	1.42e-05	1.68e-05	1.98e-05	2.35e-05	2.79e-05	3.27e-05
in cyclohexanone	0.000117	0.000146	0.000181	0.000217	0.000252	0.000287	0.000327	–	–
in ethanol	5.33e-05	6.8e-05	9.17e-05	0.000124	0.000159	0.000195	0.000232	0.000273	0.000319
in ethyl acetate	2.48e-05	3.34e-05	4.3e-05	5.26e-05	6.41e-05	7.65e-05	8.91e-05	0.000104	0.00012
in isobutanol	9.3e-06	1.3e-05	1.71e-05	2.18e-05	2.71e-05	3.33e-05	4.11e-05	4.98e-05	5.86e-05
in isopropanol	1.12e-05	1.63e-05	2.25e-05	2.89e-05	3.83e-05	4.87e-05	6.13e-05	7.76e-05	9.49e-05
in methanol	0.000272	0.000376	0.000476	0.00059	0.000722	0.000854	0.001	0.00115	0.0013
in n-butanol	1.79e-05	2.34e-05	3.1e-05	3.89e-05	4.88e-05	6.01e-05	7.53e-05	9.25e-05	0.000109
in n-octanol	2e-06	3.3e-06	4.9e-06	6.7e-06	9.5e-06	1.38e-05	1.86e-05	2.41e-05	3.01e-05
in n-propanol	2.98e-05	4.12e-05	5.26e-05	6.51e-05	7.7e-05	9.09e-05	0.000106	0.000124	0.000142
